According to paper PMC10926482, “BK Channels Are Activated by Functional Coupling With L-Type Ca^2+ Channels in Cricket Myocytes” (Frontiers in Insect Science, 2021):

Test system: T1, BK channel (large-conductance Ca2+-activated K+ channel) of cricket oviduct myocytes
T1 construct: gene slo; native channel in isolated adult female lateral oviduct myocytes; single-channel patch clamp; not molecularly identified; homotetramer expected, auxiliary subunits unknown
Test: cell-attached single-channel patch clamp, current amplitude, pipette backfill
Type: cell-based, Gryllus bimaculatus
Conditions: extracellular side; open-channel block; Hill coefficient 1.0; pipette solution 140 mM KCl, 1.6 mM CaCl2, pH 7.4; 22–27°C; counterion not given
Description: cell-attached single-channel patch clamp, current amplitude, pipette backfill on BK channel (large-conductance Ca2+-activated K+ channel) of cricket oviduct myocytes | inhibitory effect on the current amplitude of a single BK channel with an IC50 value

CC[N+](CC)(CC)CC [TEA, tetraethylammonium]
IC50: 319 ± 68.8 µM
